From ChEMBL document CHEMBL5291721, “A preclinical secondary pharmacology resource illuminates target-adverse drug reaction associations of marketed drugs” (Nat Commun, 2023) come the findings set out here.

For experiment [1], the target named is T1, Progesterone receptor (Homo sapiens, UniProt P06401).
T1 sequence (P06401 whole entry): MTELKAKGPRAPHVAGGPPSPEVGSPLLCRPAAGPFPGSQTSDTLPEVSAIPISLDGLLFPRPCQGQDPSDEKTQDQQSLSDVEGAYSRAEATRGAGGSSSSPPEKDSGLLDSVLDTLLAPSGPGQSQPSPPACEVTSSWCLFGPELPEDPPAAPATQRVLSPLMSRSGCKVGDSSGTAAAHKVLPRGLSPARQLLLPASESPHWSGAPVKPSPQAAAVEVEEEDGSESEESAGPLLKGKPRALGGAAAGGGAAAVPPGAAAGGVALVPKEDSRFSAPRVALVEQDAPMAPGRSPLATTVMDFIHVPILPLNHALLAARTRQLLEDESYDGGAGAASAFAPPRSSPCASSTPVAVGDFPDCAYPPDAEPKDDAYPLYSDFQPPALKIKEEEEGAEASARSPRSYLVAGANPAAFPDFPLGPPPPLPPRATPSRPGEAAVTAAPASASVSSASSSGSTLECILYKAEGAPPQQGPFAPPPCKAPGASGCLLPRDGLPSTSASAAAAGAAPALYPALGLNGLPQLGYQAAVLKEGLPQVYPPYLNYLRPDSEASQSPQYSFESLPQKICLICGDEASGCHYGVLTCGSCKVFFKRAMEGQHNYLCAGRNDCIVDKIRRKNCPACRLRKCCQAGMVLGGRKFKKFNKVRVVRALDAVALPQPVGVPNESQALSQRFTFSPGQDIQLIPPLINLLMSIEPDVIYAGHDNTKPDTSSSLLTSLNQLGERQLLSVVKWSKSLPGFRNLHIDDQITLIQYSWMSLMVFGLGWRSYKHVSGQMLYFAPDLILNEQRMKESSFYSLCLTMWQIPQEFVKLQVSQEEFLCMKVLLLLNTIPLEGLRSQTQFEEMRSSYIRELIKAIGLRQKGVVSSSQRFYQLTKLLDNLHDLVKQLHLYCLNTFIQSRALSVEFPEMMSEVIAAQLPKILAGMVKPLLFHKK
The format is functional.

In experiment [2] the target is T2, Type-2 angiotensin II receptor (Homo sapiens, UniProt P50052).
T2 sequence (P50052 whole entry): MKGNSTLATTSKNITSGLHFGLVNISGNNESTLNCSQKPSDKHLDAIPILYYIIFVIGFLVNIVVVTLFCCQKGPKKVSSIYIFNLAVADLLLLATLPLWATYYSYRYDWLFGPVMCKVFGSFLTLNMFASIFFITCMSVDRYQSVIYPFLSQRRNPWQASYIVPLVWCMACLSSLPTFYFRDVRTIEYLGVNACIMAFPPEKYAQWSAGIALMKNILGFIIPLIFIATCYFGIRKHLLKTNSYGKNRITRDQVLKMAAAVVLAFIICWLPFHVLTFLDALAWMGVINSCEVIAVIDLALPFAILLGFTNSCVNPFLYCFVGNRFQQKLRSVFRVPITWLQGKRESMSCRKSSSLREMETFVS
The format is functional.

The target in experiment [3] is T3, Gamma-aminobutyric acid receptor subunit alpha-1/alpha-2/beta-2/gamma-2 (Homo sapiens, UniProt P14867+P18507+P47869+P47870). The class given is functional, cell-based.
Experiment [4] concerns the target T3, Gamma-aminobutyric acid receptor subunit alpha-1/alpha-2/beta-2/gamma-2. The class given is functional, cell-based. The source holds these as a separate data set.
Experiment [5] has as its target T4, Alpha-1A adrenergic receptor (Homo sapiens, UniProt P35348).
T4 sequence (P35348 whole entry): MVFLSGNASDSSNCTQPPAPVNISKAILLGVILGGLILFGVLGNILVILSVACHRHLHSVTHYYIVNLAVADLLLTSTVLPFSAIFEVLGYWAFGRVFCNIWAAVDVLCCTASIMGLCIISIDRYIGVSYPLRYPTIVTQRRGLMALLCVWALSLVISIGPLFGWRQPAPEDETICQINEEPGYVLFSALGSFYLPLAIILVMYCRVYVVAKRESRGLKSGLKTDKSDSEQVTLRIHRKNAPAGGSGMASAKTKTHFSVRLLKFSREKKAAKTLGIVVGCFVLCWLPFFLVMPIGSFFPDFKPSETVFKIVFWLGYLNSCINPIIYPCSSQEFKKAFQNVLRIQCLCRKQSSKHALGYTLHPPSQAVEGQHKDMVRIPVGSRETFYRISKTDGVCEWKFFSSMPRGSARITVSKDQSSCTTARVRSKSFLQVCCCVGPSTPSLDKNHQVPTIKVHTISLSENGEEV

The target of experiment [6] is T5, B1 bradykinin receptor (Homo sapiens, UniProt P46663).
T5 sequence (P46663 whole entry): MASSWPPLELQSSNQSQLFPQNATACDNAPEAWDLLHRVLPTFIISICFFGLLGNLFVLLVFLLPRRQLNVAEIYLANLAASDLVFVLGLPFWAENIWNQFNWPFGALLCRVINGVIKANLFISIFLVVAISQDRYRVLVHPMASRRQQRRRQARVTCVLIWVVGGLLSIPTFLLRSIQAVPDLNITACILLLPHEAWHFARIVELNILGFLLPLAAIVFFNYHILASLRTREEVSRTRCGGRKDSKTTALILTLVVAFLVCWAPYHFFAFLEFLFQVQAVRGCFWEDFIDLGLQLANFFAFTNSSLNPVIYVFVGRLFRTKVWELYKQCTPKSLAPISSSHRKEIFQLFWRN

Experiment [7] addresses T6, D(4) dopamine receptor (Homo sapiens, UniProt P21917).
T6 sequence (P21917 whole entry): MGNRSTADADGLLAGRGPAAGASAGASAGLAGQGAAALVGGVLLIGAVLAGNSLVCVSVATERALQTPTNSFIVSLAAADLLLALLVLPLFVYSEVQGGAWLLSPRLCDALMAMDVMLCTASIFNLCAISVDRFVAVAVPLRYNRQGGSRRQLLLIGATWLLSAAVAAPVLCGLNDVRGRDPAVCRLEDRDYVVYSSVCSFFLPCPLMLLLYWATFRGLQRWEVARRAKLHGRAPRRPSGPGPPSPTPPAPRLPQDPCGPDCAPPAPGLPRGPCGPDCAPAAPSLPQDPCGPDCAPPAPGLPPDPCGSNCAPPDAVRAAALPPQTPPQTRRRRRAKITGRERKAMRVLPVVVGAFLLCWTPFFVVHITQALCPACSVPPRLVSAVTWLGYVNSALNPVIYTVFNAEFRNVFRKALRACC

Experiment [8] has as its target 5-hydroxytryptamine receptor 7 (Homo sapiens, UniProt P34969).
The target of experiment [9] is Mu-type opioid receptor (Homo sapiens, UniProt P35372).
For experiment [10], the target named is Histamine H2 receptor (Homo sapiens, UniProt P25021).

Structures are written as SMILES.
Note: assay procedure not described here.

Sequence of 5-hydroxytryptamine receptor 7 (P34969 whole entry): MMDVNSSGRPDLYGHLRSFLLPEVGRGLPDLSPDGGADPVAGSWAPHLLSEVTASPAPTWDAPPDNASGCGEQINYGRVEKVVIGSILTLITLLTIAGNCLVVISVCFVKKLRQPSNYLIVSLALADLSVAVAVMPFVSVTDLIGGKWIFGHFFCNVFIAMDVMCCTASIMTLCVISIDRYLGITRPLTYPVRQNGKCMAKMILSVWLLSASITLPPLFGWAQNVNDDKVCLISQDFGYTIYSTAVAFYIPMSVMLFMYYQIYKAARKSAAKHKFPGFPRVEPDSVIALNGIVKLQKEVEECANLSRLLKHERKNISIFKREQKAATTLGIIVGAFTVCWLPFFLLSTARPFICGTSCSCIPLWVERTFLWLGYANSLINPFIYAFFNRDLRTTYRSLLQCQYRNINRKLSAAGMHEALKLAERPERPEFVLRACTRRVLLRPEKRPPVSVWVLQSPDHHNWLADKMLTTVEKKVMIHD
T3 sequence (P14867 whole entry): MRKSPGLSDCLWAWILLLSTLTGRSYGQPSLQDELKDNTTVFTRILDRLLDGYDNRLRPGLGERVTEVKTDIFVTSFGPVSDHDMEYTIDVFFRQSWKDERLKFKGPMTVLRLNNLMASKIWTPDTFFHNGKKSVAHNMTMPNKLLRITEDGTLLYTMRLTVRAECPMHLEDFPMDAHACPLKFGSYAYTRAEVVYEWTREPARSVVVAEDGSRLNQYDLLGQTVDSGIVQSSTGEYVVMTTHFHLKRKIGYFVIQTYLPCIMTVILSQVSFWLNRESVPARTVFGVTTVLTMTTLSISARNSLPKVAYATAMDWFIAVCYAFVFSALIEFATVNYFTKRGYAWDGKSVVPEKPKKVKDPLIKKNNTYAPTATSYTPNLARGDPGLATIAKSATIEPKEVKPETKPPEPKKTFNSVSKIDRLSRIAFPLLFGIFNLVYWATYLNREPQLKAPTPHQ
T3 sequence (P47870 whole entry): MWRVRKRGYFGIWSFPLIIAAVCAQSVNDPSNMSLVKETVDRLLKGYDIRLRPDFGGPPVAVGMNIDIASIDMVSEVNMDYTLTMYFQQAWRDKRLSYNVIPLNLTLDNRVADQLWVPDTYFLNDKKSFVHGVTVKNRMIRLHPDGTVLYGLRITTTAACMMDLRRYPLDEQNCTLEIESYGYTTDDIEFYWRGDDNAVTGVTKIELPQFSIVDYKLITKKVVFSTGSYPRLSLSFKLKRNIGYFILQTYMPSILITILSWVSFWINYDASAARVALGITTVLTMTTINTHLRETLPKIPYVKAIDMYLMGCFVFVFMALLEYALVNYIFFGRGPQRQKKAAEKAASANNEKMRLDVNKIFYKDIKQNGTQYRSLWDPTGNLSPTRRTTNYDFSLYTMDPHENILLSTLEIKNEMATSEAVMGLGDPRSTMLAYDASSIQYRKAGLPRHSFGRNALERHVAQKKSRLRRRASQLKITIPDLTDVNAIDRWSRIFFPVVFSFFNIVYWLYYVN
T3 sequence (P18507 whole entry): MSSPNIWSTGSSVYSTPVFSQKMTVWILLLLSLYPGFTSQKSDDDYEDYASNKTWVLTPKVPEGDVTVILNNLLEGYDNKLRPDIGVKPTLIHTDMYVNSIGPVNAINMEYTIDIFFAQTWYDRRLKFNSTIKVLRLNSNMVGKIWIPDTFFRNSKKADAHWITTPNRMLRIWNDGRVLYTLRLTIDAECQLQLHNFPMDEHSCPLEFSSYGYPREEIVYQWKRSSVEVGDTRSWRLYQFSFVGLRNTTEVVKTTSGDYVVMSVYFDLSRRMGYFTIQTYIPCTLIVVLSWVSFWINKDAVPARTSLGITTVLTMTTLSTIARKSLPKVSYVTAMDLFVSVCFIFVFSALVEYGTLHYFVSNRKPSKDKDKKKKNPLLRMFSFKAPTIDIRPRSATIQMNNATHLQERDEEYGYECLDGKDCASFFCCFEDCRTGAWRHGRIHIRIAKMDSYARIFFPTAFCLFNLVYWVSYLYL
T3 sequence (P47869 whole entry): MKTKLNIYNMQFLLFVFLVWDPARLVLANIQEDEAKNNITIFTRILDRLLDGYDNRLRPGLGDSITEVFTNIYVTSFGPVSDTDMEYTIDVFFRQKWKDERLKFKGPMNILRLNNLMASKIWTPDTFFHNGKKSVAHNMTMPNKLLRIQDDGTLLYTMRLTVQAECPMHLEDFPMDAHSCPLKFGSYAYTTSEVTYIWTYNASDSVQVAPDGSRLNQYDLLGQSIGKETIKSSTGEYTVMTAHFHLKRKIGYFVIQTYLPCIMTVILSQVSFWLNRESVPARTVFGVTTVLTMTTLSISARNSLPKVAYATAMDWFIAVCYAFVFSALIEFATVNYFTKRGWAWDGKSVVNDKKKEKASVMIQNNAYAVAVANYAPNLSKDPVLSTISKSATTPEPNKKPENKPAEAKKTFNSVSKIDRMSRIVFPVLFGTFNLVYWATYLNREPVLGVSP
Sequence of Mu-type opioid receptor (P35372 whole entry): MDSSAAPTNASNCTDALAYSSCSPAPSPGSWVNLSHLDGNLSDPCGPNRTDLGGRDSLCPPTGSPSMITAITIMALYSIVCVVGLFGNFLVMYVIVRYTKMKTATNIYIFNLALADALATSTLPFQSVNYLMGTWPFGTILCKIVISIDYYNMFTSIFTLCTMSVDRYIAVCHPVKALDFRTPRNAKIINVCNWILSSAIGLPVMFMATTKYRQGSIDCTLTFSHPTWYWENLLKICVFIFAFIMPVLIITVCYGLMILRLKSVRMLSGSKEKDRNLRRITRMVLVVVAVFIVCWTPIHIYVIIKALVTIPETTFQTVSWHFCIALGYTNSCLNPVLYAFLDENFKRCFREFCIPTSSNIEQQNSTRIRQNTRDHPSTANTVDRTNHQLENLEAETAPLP
Sequence of Histamine H2 receptor (P25021 whole entry): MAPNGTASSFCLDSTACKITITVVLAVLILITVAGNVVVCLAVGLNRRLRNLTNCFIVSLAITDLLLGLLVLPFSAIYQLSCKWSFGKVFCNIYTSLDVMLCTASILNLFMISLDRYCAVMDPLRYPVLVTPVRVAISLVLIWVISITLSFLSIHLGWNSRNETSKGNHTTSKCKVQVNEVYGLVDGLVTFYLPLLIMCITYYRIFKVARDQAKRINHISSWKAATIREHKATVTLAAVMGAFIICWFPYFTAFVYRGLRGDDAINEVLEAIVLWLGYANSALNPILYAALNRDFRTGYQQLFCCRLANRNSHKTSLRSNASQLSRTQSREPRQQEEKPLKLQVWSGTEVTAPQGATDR

As usually defined, the AC50 is the concentration giving half of the maximal activity seen. Low values mean greater potency, high ones weaker potency. Regarding `CCC(CC)(CC(=O)Nc1cccc(/C=C/c2nc(C3CCC3)cs2)c1)C(=O)O`, the AC50 in experiment [1] was > 30 µM.
As to `CCN1CCCC1CNC(=O)c1cc(S(N)(=O)=O)ccc1OC` (stereo unspecified) [SULPIRIDE], the concentration at half-maximal activity (AC50) in experiment [2] was > 100 µM.
Take `CC[C@@H](C(N)=O)N1CCCC1=O`: the AC50 in experiment [3], in experiment [4] and in experiment [1] was > 30 µM in each case.
On to `CCCCCNC(=N)N/N=C/c1c[nH]c2ccc(OC)cc12` [TEGASEROD], for which the AC50 was 2.05 µM in [5]; > 30 µM in [6]; 0.657 µM in experiment [7]; 0.802 µM in experiment [8]; > 30 µM in [1]; 2.8 µM in [9].
On to `COc1cc2nc(N3CCN(C(=O)c4ccco4)CC3)nc(N)c2cc1OC` [PRAZOSIN], for which the AC50 in [2] is > 100 µM; in experiment [6], > 30 µM; in experiment [7], > 10 µM; in experiment [9], 4.1 µM.
On to `COc1ccccc1N1CCN(CC(O)COc2cccc3ccccc23)CC1` (stereo unspecified) [NAFTOPIDIL], for which the concentration at half-maximal activity (AC50) in experiment [5] is 0.543 µM; in experiment [1] it was > 30 µM.
Turning to `O=[N+]([O-])O[C@@H]1CO[C@H]2[C@@H]1OC[C@@H]2O` [ISOSORBIDE MONONITRATE], the concentration at half-maximal activity (AC50) was > 10 µM in [5]; > 30 µM in experiment [6]; > 10 µM in experiment [7]; > 10 µM in experiment [10]; > 30 µM in experiment [9].
In the case of `CN1CCN(C2=Nc3ccccc3Sc3ccc(Cl)cc32)CC1` [CLOTHIAPINE], the AC50 in experiment [3] was > 30 µM; in experiment [4], > 10 µM.
As to `O=[N+]([O-])c1cn2c(n1)OC[C@@H](OCc1ccc(OC(F)(F)F)cc1)C2` [PRETOMANID], the AC50 was > 30 µM in experiment [6], > 10 µM in [10], > 10 µM in [8] and > 10 µM in experiment [9].
Turning to `CN(C)CCC=C1c2ccccc2C=Cc2ccccc21` [CYCLOBENZAPRINE], the AC50 was 0.261 µM in [5], > 30 µM in experiment [6] and > 10 µM in [9].
As for `C=CCN1C[C@H](C(=O)N(CCCN(C)C)C(=O)NCC)C[C@@H]2c3cccc4[nH]cc(c34)C[C@H]21` [CABERGOLINE], the AC50 is 3.62 µM in experiment [5]; > 30 µM in experiment [3]; > 30 µM in [4]; > 10 µM in [1]; > 30 µM in experiment [9].
In the case of `CCOc1ccc(Cc2cc([C@@H]3O[C@H](CO)[C@@H](O)[C@H](O)[C@H]3O)ccc2Cl)cc1` [DAPAGLIFLOZIN], the AC50 in experiment [5] is > 10 µM; in experiment [10], > 10 µM; in experiment [9] it was > 30 µM.
With `NC1CCN(c2c(F)cc3c(=O)c(C(=O)O)cn(C4CC4)c3c2Cl)C1` (stereo unspecified) [CLINAFLOXACIN], the AC50 in experiment [3] and in experiment [4] was > 300 µM each time.
For `COc1ccc(C(=O)Nc2ccccc2CCC2CCCCN2C)cc1` (stereo unspecified) [ENCAINIDE], the half-maximal activity concentration (AC50) was > 10 µM in experiment [5]; > 30 µM in [6]; > 10 µM in experiment [7]; 16.2 µM in experiment [10]; > 30 µM in experiment [9].
Turning to `CCOc1ccccc1OCC1CNCCO1` (stereo unspecified) [VILOXAZINE], the half-maximal activity concentration (AC50) in [5] is 11.2 µM; in [2], > 100 µM; in experiment [6] it was > 30 µM; in experiment [7], > 10 µM; in [10], > 10 µM; in [8] it was > 10 µM. In addition, in experiment [9], the AC50 was > 10 µM.
Consider `CN(C)CC/C=C1\c2ccccc2CSc2ccccc21` [DOTHIEPIN], for which half-maximal activity in [5] (AC50) was put at 3.2 µM. This lies in the single-digit micromolar range.
For `Cc1cc(C)c(NC(=O)CN(CC(=O)O)CC(=O)O)c(C)c1Br` [MEBROFENIN], the AC50 in experiment [3] and in experiment [4] was > 30 µM each time.
In the case of `CCCC1O[C@@H]2C[C@H]3[C@@H]4CCC5=CC(=O)C=C[C@]5(C)[C@H]4[C@@H](O)C[C@]3(C)[C@]2(C(=O)CO)O1` (stereo partly specified) [BUDESONIDE], the AC50 was > 10 µM in experiment [5] and > 30 µM in experiment [9].
With `COC1=C(OC)C(=O)C(C/C=C(\C)CC/C=C(\C)CC/C=C(\C)CC/C=C(\C)CC/C=C(\C)CC/C=C(\C)CC/C=C(\C)CC/C=C(\C)CC/C=C(\C)CCC=C(C)C)=C(C)C1=O` [UBIDECARENONE], the half-maximal activity concentration (AC50) in [3] and in experiment [4] was > 30 µM each time.
In the case of `Cc1oc(=O)oc1CN1CCN(c2cc3c(cc2F)c(=O)c(C(=O)O)c2n3C(C)S2)CC1` (stereo unspecified) [PRULIFLOXACIN], the AC50 in experiment [3] and in experiment [4] was > 30 µM each time.
On to `CCOC(=O)/C=C1\SC(N2CCCCC2)C(=O)N1C` (stereo unspecified) [ETOZOLIN], for which, in experiment [2], the AC50 is > 100 µM.
As for `CN(C)CCc1c[nH]c2ccc(C[C@H]3COC(=O)N3)cc12` [ZOLMITRIPTAN], the AC50 in [3], in [4] and in experiment [1] was > 30 µM in each case.
`CC[C@H]1CN2CCc3cc(OC)c(OC)cc3[C@@H]2C[C@@H]1C[C@H]1NCCc2cc(OC)c(OC)cc21` [EMETINE]: the AC50 was 6 µM in [5]; > 30 µM in [3]; > 30 µM in experiment [4]; > 30 µM in experiment [1]; 18 µM in [9].
